{"source": "ChEMBL document CHEMBL4334494", "about": "“Recent advances in the targeting of human DNA ligase I as a potential new strategy for cancer treatment” (Eur J Med Chem, 2019)", "key": {"DNA ligase 1 [1]": {"biological_target": "T1, DNA ligase 1 (Homo sapiens, UniProt P18858)", "T1 sequence (P18858 whole entry)": "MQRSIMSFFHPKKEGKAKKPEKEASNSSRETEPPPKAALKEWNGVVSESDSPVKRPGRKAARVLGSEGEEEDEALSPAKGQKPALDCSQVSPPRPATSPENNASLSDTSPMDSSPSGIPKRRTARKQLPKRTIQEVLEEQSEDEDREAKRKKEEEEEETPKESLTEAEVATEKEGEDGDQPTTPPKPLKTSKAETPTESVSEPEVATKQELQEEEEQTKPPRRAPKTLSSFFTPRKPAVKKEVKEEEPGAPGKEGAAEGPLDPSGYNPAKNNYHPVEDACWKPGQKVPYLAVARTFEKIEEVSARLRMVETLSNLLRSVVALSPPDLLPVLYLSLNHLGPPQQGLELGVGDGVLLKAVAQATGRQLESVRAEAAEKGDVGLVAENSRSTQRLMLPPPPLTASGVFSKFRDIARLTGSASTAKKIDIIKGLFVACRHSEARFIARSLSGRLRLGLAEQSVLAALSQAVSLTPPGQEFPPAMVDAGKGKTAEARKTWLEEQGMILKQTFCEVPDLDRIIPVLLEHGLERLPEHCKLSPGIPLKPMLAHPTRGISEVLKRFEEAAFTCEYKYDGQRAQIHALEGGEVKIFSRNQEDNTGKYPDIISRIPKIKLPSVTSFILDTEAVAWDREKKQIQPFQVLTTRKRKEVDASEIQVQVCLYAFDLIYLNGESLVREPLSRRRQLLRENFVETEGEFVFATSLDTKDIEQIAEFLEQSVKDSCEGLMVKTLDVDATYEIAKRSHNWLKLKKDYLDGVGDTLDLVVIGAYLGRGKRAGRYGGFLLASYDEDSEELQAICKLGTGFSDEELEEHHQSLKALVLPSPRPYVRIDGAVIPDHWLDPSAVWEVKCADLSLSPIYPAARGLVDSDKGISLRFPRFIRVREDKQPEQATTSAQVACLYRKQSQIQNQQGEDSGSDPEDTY", "assay": "Inhibition of human DNA ligase 1 expressed in Escherichia coli BL21 (DE3) cells using nicked DNA as substrate preincubated for 30 mins followed by substrate addition measured after 1 hr"}, "DNA ligase 1 [2]": {"biological_target": "T1, DNA ligase 1", "assay": "Inhibition of human DNA ligase 1 using 52-mer DNA/25-mer DNA/27-mer DNA as substrate by fluorescence assay"}, "MDA-MB-231 [3]": {"test_system": "MDA-MB-231", "assay": "Antiproliferative activity against human MDA-MB-231 cells after 48 hrs by MTT assay", "assay_type": "functional, cell-based", "conditions": "MDA-MB-231, 48 h"}, "HCT-116 [4]": {"test_system": "HCT-116", "assay": "Antiproliferative activity against human HCT116 cells after 48 hrs by MTT assay", "assay_type": "functional, cell-based", "conditions": "HCT-116, 48 h"}, "HT-29": {"test_system": "HT-29", "assay": "Antiproliferative activity against human HT-29 cells after 48 hrs by MTT assay", "assay_type": "functional, cell-based", "conditions": "HT-29, 48 h"}, "DLD-1": {"test_system": "DLD-1", "assay": "Antiproliferative activity against human DLD1 cells after 48 hrs by MTT assay", "assay_type": "functional, cell-based", "conditions": "DLD-1, 48 h"}, "4T1": {"test_system": "4T1", "assay": "Antiproliferative activity against mouse 4T1 cells after 48 hrs by MTT assay", "assay_type": "functional, cell-based", "conditions": "4T1, 48 h"}, "HepG2": {"test_system": "HepG2", "assay": "Antiproliferative activity against human HepG2 cells after 48 hrs by MTT assay", "assay_type": "functional, cell-based", "conditions": "HepG2, 48 h"}, "HeLa": {"test_system": "HeLa", "assay": "Antiproliferative activity against human HeLa cells after 48 hrs by MTT assay", "assay_type": "functional, cell-based"}, "DNA ligase 1 [5]": {"biological_target": "T1, DNA ligase 1", "assay": "Inhibition of human DNA ligase 1 expressed in Escherichia coli BL21DE3RP cells at 50 uM using 52-mer DNA/25-mer DNA/27-mer DNA as substrate after 30 mins by Cyanin3 dye-based fluorescence assay relative to control"}, "DNA ligase 1 [6]": {"biological_target": "T1, DNA ligase 1", "assay": "Inhibition of human DNA ligase 1 at 50 uM using 52-mer DNA/25-mer DNA/27-mer DNA as substrate by fluorescence assay relative to control"}, "HCT-116 [7]": {"test_system": "HCT-116", "assay": "Antiproliferative activity against human HCT116 cells relative to control", "assay_type": "functional"}, "MDA-MB-231 [8]": {"test_system": "MDA-MB-231", "assay": "Antiproliferative activity against human MDA-MB-231 cells at 10 uM after 48 hrs by MTT assay relative to control", "assay_type": "functional", "conditions": "MDA-MB-231, 48 h"}, "DNA ligase 1 [9]": {"biological_target": "T1, DNA ligase 1", "assay": "Inhibition of human DNA ligase 1 at 25 uM using nicked DNA as substrate after 30 mins relative to control"}}}
{"molecule": "O=C1Nc2ccc(Cl)cc2/C1=N/Nc1cn[nH]c(=O)c1Cl", "values": [{"measurement": "IC50", "setting": "DNA ligase 1 [1]", "value": 14.1, "unit": "µM"}]}
{"molecule": "C[n+]1cc2c3c(ccc2c2ccc4cc5c(cc4c21)OCO5)OCO3", "note": "[SANGUINARINE NITRATE]", "values": [{"measurement": "IC50", "setting": "DNA ligase 1 [2]", "value": 322, "unit": "µM"}]}
{"molecule": "O=c1c(O)c(-c2cc(O)c(O)c(O)c2)oc2cc(O)cc(O)c12", "note": "[MYRICETIN]", "values": [{"measurement": "IC50", "setting": "DNA ligase 1 [2]", "value": 88, "unit": "µM"}]}
{"molecule": "Cc1ccc(/C=C2\\CN(C(=S)NCCc3ccccc3)C/C(=C\\c3ccc(C)cc3)C2=O)cc1", "values": [{"measurement": "IC50", "setting": "MDA-MB-231 [3]", "value": "< 10", "unit": "µM"}, {"measurement": "IC50", "setting": "HCT-116 [4]", "value": "< 10", "unit": "µM"}, {"measurement": "IC50", "setting": "HT-29", "value": "< 10", "unit": "µM"}, {"measurement": "IC50", "setting": "DLD-1", "value": "< 10", "unit": "µM"}, {"measurement": "IC50", "setting": "4T1", "value": "< 10", "unit": "µM"}, {"measurement": "IC50", "setting": "HepG2", "value": "< 10", "unit": "µM"}, {"measurement": "IC50", "setting": "HeLa", "value": "< 10", "unit": "µM"}, {"measurement": "inhibition", "setting": "DNA ligase 1 [5]", "value": "> 75", "unit": "%"}]}
{"molecule": "CC(=O)c1ccc(NC(=O)Nc2ccc3nc(C)cc(NC(=O)c4ccco4)c3c2)cc1", "values": [{"measurement": "inhibition", "setting": "DNA ligase 1 [6]", "value": 42.4, "unit": "%"}]}
{"molecule": "O=C1/C(=C/c2ccc(F)cc2)CN(C(=S)NCCc2ccccc2)C/C1=C\\c1ccc(F)cc1", "values": [{"measurement": "IC50", "setting": "MDA-MB-231 [3]", "value": "< 10", "unit": "µM"}, {"measurement": "IC50", "setting": "HCT-116 [4]", "value": "< 10", "unit": "µM"}, {"measurement": "IC50", "setting": "HT-29", "value": "< 10", "unit": "µM"}, {"measurement": "IC50", "setting": "DLD-1", "value": "< 10", "unit": "µM"}, {"measurement": "IC50", "setting": "4T1", "value": "< 10", "unit": "µM"}, {"measurement": "IC50", "setting": "HepG2", "value": "< 10", "unit": "µM"}, {"measurement": "IC50", "setting": "HeLa", "value": "< 10", "unit": "µM"}, {"measurement": "inhibition", "setting": "DNA ligase 1 [5]", "value": "> 75", "unit": "%"}]}
{"molecule": "COc1ccc(NC(=S)NCC23C=CC(O2)C2C(=O)N(c4ccccc4)C(=O)C23)c([N+](=O)[O-])c1", "note": "(stereo not drawn)", "values": [{"measurement": "inhibition", "setting": "DNA ligase 1 [6]", "value": 56.2, "unit": "%"}]}
{"molecule": "COc1cc([N+](=O)[O-])ccc1NC(=S)NCC12C=CC(O1)C1C(=O)N(c3c(Cl)cccc3Cl)C(=O)C12", "note": "(stereo not drawn)", "values": [{"measurement": "inhibition", "setting": "DNA ligase 1 [6]", "value": 75.9, "unit": "%"}]}
{"molecule": "O=C1Nc2ccccc2/C1=N/Nc1cn[nH]c(=O)c1Cl", "values": [{"measurement": "IC50", "setting": "DNA ligase 1 [1]", "value": 13.9, "unit": "µM"}]}
{"molecule": "CCOC(=O)N1CCN(CC(=O)Nc2cc(C)nc3ccc(NC(=O)Nc4ccc(C)c(Cl)c4)cc23)CC1", "values": [{"measurement": "inhibition", "setting": "DNA ligase 1 [6]", "value": 98.6, "unit": "%"}]}
{"molecule": "COc1ccc(-c2cnc3c(O)nc(O)nc3n2)cc1", "values": [{"measurement": "Activity", "setting": "HCT-116 [7]", "value": 70, "unit": "%"}]}
{"molecule": "O=C1/C(=N\\Nc2cn[nH]c(=O)c2Cl)c2cc(Br)ccc2N1c1ccc(Cl)cc1", "values": [{"measurement": "IC50", "setting": "DNA ligase 1 [1]", "value": "15.5 to 18.8", "unit": "µM"}]}
{"molecule": "COc1cccc(OC)c1/C=C/c1cc(=O)oc2c1ccc1ccccc12", "values": [{"measurement": "inhibition at 10 µM", "setting": "MDA-MB-231 [8]", "value": "> 50", "unit": "%"}, {"measurement": "inhibition", "setting": "DNA ligase 1 [9]", "value": "< 50", "unit": "%"}]}
{"molecule": "CC(=O)c1ccc(NC(=O)Nc2ccc3nc(C)cc(NC(=O)c4ccccc4)c3c2)cc1", "values": [{"measurement": "inhibition", "setting": "DNA ligase 1 [6]", "value": 76.2, "unit": "%"}]}
{"molecule": "O=C1/C(=N\\Nc2cn[nH]c(=O)c2Cl)c2ccccc2N1c1ccc(Cl)cc1", "values": [{"measurement": "IC50", "setting": "DNA ligase 1 [1]", "value": 26.5, "unit": "µM"}]}
{"molecule": "Cc1ccc(N2C(=O)/C(=N\\Nc3cn[nH]c(=O)c3Cl)c3ccccc32)cc1", "values": [{"measurement": "IC50", "setting": "DNA ligase 1 [1]", "value": 14.1, "unit": "µM"}]}
{"molecule": "CCCCNC(=S)N1C/C(=C\\c2ccccc2F)C(=O)/C(=C/c2ccccc2F)C1", "values": [{"measurement": "IC50", "setting": "MDA-MB-231 [3]", "value": "< 10", "unit": "µM"}, {"measurement": "IC50", "setting": "HCT-116 [4]", "value": "< 10", "unit": "µM"}, {"measurement": "IC50", "setting": "HT-29", "value": "< 10", "unit": "µM"}, {"measurement": "IC50", "setting": "DLD-1", "value": "< 10", "unit": "µM"}, {"measurement": "IC50", "setting": "4T1", "value": "< 10", "unit": "µM"}, {"measurement": "IC50", "setting": "HepG2", "value": "< 10", "unit": "µM"}, {"measurement": "IC50", "setting": "HeLa", "value": "< 10", "unit": "µM"}, {"measurement": "inhibition", "setting": "DNA ligase 1 [5]", "value": "> 75", "unit": "%"}]}
{"molecule": "O=C1/C(=N\\Nc2cn[nH]c(=O)c2Cl)c2cc(Cl)ccc2N1c1ccc(F)cc1", "values": [{"measurement": "IC50", "setting": "DNA ligase 1 [1]", "value": 21.1, "unit": "µM"}]}
{"molecule": "Cc1ccccc1/C=C1\\CN(C(=S)NC(=O)c2ccccc2)C/C(=C\\c2ccccc2C)C1=O", "values": [{"measurement": "IC50", "setting": "MDA-MB-231 [3]", "value": "< 10", "unit": "µM"}, {"measurement": "IC50", "setting": "HCT-116 [4]", "value": "< 10", "unit": "µM"}, {"measurement": "IC50", "setting": "HT-29", "value": "< 10", "unit": "µM"}, {"measurement": "IC50", "setting": "DLD-1", "value": "< 10", "unit": "µM"}, {"measurement": "IC50", "setting": "4T1", "value": "< 10", "unit": "µM"}, {"measurement": "IC50", "setting": "HepG2", "value": "< 10", "unit": "µM"}, {"measurement": "IC50", "setting": "HeLa", "value": "< 10", "unit": "µM"}, {"measurement": "inhibition", "setting": "DNA ligase 1 [5]", "value": "> 75", "unit": "%"}]}
